The values below come from article PMC11325555, “Interaction of Bisphenol A and Its Analogs with Estrogen and Androgen Receptor from Atlantic Cod (Gadus morhua)” (Environmental Science & Technology, 2024).

A word on the EC50: it is the concentration at which the effect is half-maximal. In general, IC50 refers to the concentration that inhibits the measured activity by half.

Data set [1] deals with T1, Atlantic cod estrogen receptor alpha (gmEra) LBD (Gadus morhua, UniProt U5ILH7).
T1 sequence (U5ILH7 170-455): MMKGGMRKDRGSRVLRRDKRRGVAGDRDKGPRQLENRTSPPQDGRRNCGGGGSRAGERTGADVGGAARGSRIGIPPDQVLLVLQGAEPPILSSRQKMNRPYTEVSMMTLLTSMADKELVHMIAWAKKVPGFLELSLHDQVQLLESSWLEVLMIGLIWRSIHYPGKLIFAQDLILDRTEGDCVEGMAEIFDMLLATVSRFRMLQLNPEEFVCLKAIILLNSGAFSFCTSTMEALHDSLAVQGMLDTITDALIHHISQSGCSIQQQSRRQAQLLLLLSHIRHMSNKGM
Description: Luciferase reporter gene assay, gmEra agonism (estrogenic activity) in transfected COS-7 cells. Particulars: for EC50: gmEra EC50, four-parameter logistic fit; for gmEra REP50 (relative potency EC50, EC50-bisphenol A/EC50-bisphenol X): relative to BPA. As for the experimental part: (§1) Ligand activation of gmEra and gmAra was studied with a luciferase reporter gene assay in COS-7 cells transiently transfected with the pCMX-GAL4(DBD)-gmEra(LBD) or pCMX-GAL4(DBD)-gmAra(LBD) plasmid by using the TransIT-LT1 reagent (TransIT-LT1 Transfection Reagent, Mirus). Cells were seeded into 96-well plates (5000 cells/well) and incubated for 24 h before cotransfection with the plasmid mixture (100 ng/well). The plasmid mixture contained GAL4-UAS luciferase reporter plasmid (tk-(MH100)x4 luc), the pCMX-GAL4(DBD)-gmEra(LBD) or pCMX-GAL4(DBD)-gmAra(LBD) receptor plasmids (2:1 reporter:receptor plasmid mass ratio), and a plasmid constitutively producing the β-galactosidase enzyme used for normalization of transfection efficiency (pCMV- β-Gal). […] The maximum DMSO/methanol concentrations in the exposure wells were 0.5% (v/v) in DMEM medium without phenol red (Sigma-Aldrich). After exposure, cells were lysed, and luciferase and beta-galactosidase activities were measured as luminescence and absorbance (420 nm) after the addition of luciferin and ONPG substrates, respectively, using an Enspire Multimode plate reader (PerkinElmer, Waltham, Massachusetts, USA).
Luciferase reporter gene assays were established with COS-7 cells transiently producing the LBD of gmEra (Figure S1) for evaluating the estrogenic potential of 12 bisphenols.
COS-7 cells transiently transfected with gmEra-LBD were exposed to EE2 (open circles), BPA (black circles), and 11 different BPA analogs (red squares and as indicated) at increasing concentrations. Responses are presented as mean fold activation in luciferase activity in comparison to solvent-exposed cells ± SEM from three independent experiments with three technical replicates (n = 9). The dose–response curves were created using nonlinear regression and the four parameter logistic fit in Graphpad Prism v.9. For comparison, the dose–response curve of BPA (black line) is indicated together with each individual BP tested (red line). *p < 0.05 versus solvent control by one-way ANOVA and Dunnett’s multiple comparison post hoc test.

For data set [2], the target named is T1, Atlantic cod estrogen receptor alpha (gmEra) LBD. The experiment in a line: Luciferase reporter gene assay, gmEra antagonism (antiestrogenic activity), coexposure with 3 nM EE2. The data set is classed as cell-based. Particulars: coexposure with EE2 (3 nM, EC20). As for the experimental part: as §1
To investigate potential antiestrogenic effects, COS-7 cells transiently expressing gmEra LBD were exposed to the 12 bisphenols in binary mixtures with a fixed concentration of EE2 (3 nM, corresponding to EC20) (Figure 2 and Table 1).
(§2) The dose–response curves were created using nonlinear regression and the four-parameter logistic fit in Graphpad Prism v.9. *p < 0.05 versus solvent control by ANOVA and Dunnett’s multiple comparison post hoc test.

Data set [3] has as its target T2, Atlantic cod androgen receptor alpha (gmAra) LBD (Gadus morhua, UniProt D5FIC7).
T2 sequence (D5FIC7 409-718): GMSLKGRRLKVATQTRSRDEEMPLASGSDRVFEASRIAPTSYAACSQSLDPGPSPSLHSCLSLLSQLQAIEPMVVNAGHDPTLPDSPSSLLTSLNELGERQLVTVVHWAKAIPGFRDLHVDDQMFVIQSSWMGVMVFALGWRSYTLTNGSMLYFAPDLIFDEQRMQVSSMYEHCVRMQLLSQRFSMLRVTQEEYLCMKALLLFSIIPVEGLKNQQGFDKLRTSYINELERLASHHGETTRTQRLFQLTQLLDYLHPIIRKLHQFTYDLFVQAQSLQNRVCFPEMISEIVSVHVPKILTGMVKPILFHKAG
The experiment in a line: Luciferase reporter gene assay, gmAra agonism (androgenic activity) in transfected COS-7 cells. Particulars: for maximal fold induction: COS-7, monkey, 24 h, read-out: gmAra Emax. How it is done:
as §1
Figure 3 Androgenic activity of bisphenols. COS-7 cells were transiently transfected with gmAra LBD and exposed individually to 12 bisphenol analogs at increasing concentrations. […] The dose–response curves were created using nonlinear regression and the four-parameter logistic fit in Graphpad Prism v.9. For comparison, the dose–response curve of BPA (black line) is indicated together with each individual BP tested (red line). *p < 0.05 versus solvent control by one-way ANOVA and Dunnett’s multiple comparison post hoc test.

Data set [4] deals with T2, Atlantic cod androgen receptor alpha (gmAra) LBD. The experiment in a line: Luciferase reporter gene assay, gmAra antagonism (antiandrogenic activity), coexposure with 5 nM testosterone. It is filed as cell-based. Conditions: for effect on testosterone-mediated gmAra activity, result in words: BPs 0.003–50 μM with 5 nM testosterone; for IC50: gmAra IC50, in the presence of 5 nM testosterone (EC20). As for the experimental part:
as §1, §2

For data set [5], the system named is Er-mediated synthesis of Vtg in Atlantic cod PCLS. The experiment in a line: Vitellogenin ELISA in media of exposed precision-cut liver slices (PCLS). The data set is classed as cell-based, Atlantic cod (Gadus morhua). Conditions: 1, 10, 100 μM bisphenols or 0.1, 1, 10 nM EE2; 96 h; Vtg in media by ELISA. How it is done:
PCLS culturing and exposure assays were performed essentially as described previously,[42],[56] with the modifications described below. Juvenile Atlantic cod were killed by a blow to the head, and the liver was dissected out and placed in a Petri dish containing ice-cold PCLS buffer (122 mM NaCl, 4.8 mM KCl, 1.2 mM MgSO4, 11 mM Na2HPO4, 3.7 mM NaHCO3, […]). The liver was then cut into small tissue blocks (approximately 3 cm long, 2 cm wide, and 1–3 cm high) and kept in ice-cold complete culture medium (L-15 medium supplemented with 10% FBS and 1× antibiotic-antimycotic solution). For slicing, the tissue block was fixed on the specimen plate of a Leica vibrating blade microtome VT1200 (Leica, Wetzlar, Germany) using Loctite Super Glue (Clas Ohlson, Bergen, Norway), and 250 μm thick tissue slices were cut (under ice-cold PCLS buffer) and kept in a Petri dish with ice-cold complete culture medium. Using a sterile razor blade, the tissue slices (2 × 3 cm) were then divided into smaller pieces (approximately 4 × 4 mm) and distributed into a 12-well cell culture plate (Sarstedt, Nümbrecht, Germany), each well containing 6 slices and 2 mL of complete culture medium. The PCLS were preincubated at 10 °C for 2 h before exposure. After preincubation, 1 mL of the medium was removed from each well and replaced by 1 mL of fresh complete culture medium containing 2x the final desired concentration and incubated at 10 °C for 96 h with shaking at 50 rpm. […] At the end of the exposure, slices were collected with tweezers and rinsed briefly in cold PBS. Excess PBS was removed by carefully touching a dry surface of the culture plate with the slice 4 times before measuring the weight in a preweighed cryotube. The slices were then snap-frozen in liquid N2 and stored at −80 °C. The media was also sampled and stored at −80 °C for viability (LDH) assay and vitellogenin ELISA.
Vitellogenin (Vtg) in media collected from exposed PCLS was quantified using the Atlantic Cod Vitellogenin ELISA kit (Biosense Laboratories AS, Bergen, Norway) according to manufacturer’s instructions. Vtg was quantified in 100 μL of undiluted media and normalized to the weight of the liver tissue. Statistical analysis of ELISA data was performed with GraphPad Prism Software version 9 (GraphPad Prism, La Jolla, CA, USA) by using one-way ANOVA followed by Dunnett’s test (for normally distributed data) or Friedman test followed by Dunn’s test (for non-normally distributed data), as described previously for PCLS experiments (Yadetie et al.[42]).
Figure 5 Relative vitellogenin production in Atlantic cod precision-cut liver slices (PCLS) exposed to bisphenols and EE2. PCLS were exposed to 1, 10, and 100 μM bisphenols or 0.1, 1, and 10 nM EE2, for 96 h. EE2 was included as positive control for activation of the gmEra signaling pathway. Levels of induced Vtg in the PCLS media were measured using ELISA (Cod Vitellogenin ELISA kit, Biosense Laboratories AS). The data represents mean ± SEM of fold change (compared to solvent control) of Vtg levels from 4 to 10 fish. n = 8–10 for all bisphenols except for BADGE (n = 4). Asterisks denote significant changes (p < 0.05) compared to solvent control.
On the technique in general: An ELISA detects its analyte on a solid surface through an enzyme-linked reagent.

For data set [6], the system named is Er. Also noted: method as in doi:10.11403/jset.11.133. Particulars: medaka; cited from earlier work.
In data set [7] the test system is Er. Also noted: method as in PMID 12651187. Particulars: carp; cited from earlier work.
Data set [8] has as its system human Era. Also noted: method as in PMID 15635150. Particulars: cited from earlier work.

“Also recorded” adds a separate entry of the source. Like-named read-outs stand apart in the source and are kept apart here.

Turning to `CC(c1ccc(O)cc1)c1ccc(O)cc1` [BPE], the EC50 in data set [1] (24 h exposure) came out at 11.7 µM. Moreover, the “gmEra REP50 (relative potency EC50, EC50-bisphenol A/EC50-bisphenol X)” value in data set [1] stood at 0.2. In addition, the “antiestrogenic effect on gmEra, result in words” value in data set [2] is “no antiestrogenic effects”. Further, the maximal fold induction in data set [3] turned out to be 1.2. Moreover, in data set [4], the “effect on testosterone-mediated gmAra activity, result in words” value is given as “significantly decrease the testosterone-mediated Ara-activity” and the IC50 was 0.46 µM. Moreover, the “Vtg synthesis in PCLS, result in words” value in data set [5] is “induced the highest Vtg-levels ex vivo”.

In the case of `CC(C)(c1ccc(O)cc1)c1ccc(O)cc1` [BPA, Bisphenol A], the maximal fold induction turned out to be 19.4 in data set [1] (COS-7, monkey, 24 h, read-out: gmEra Emax) and 1.6 in data set [3]. Moreover, in data set [1] (fold activation in luciferase activity vs solvent control, 24 h exposure, * = statistically significant, a = plateau not reached, highest fold activation obtained, 1440 min), the “gmEra Emax” value amounted to 19 fold activation. Moreover, the EC50 was 1.9 µM in data set [1] (24 h exposure); 25.7 µM in data set [3]; 0.59 µM in data set [6]; 26 µM in data set [7]; 0.63 µM in data set [8]. In data set [1], the “gmEra REP50 (relative potency EC50, EC50-bisphenol A/EC50-bisphenol X)” value worked out at 1.0. The “antiestrogenic effect on gmEra, result in words” value in data set [2] is on record as “did not antagonize gmEra; also recorded: no antiestrogenic effects”. Moreover, in data set [3] (relative to BPA), the “gmAra REP50 (relative potency EC50, EC50-bisphenol A/EC50-bisphenol X)” value stood at 1.0. The “effect on testosterone-mediated gmAra activity, result in words” value in data set [4] is “significantly decrease the testosterone-mediated Ara-activity”. Besides, the IC50 in data set [4] is 0.14 µM.
